Several values for one entry are separate records, joined by “and”; a condition that tells them apart may be missing. Equal entries are not always repeated. Structures can show the parent of a compound that is named as a salt.
Experiment: iontophoretic transdermal delivery of Tapentadol hydrochloride, 8 hours of iontophoresis (example 1a), side-bi-side diffusion cells, constant current 0.25 mA (0.4 mA/cm2), donor 100 mM in water
Format: in vitro ADME, pig
Details: for drug flux across the skin, Mean ± SD / drug flux across the skin, as tapentadol base, Mean ± SD / cumulative, iontophoretic delivery across the skin, Mean ± SD / cumulative, iontophoretic delivery across the skin, as tapentadol base, Mean ± SD: n=6; for drug flux across the skin, Mean ± SD / drug flux across the skin, as tapentadol base, Mean ± SD / cumulative, iontophoretic delivery across the skin, Mean ± SD / cumulative, iontophoretic delivery across the skin, as tapentadol base, Mean ± SD / drug flux across the skin / cumulative, iontophoretic delivery across the skin: patch area 0.64 cm^2; for drug flux across the skin / cumulative, iontophoretic delivery across the skin: single cells 1-6, hydrochloride
Description: Determination of the rate of iontophoretic transdermal delivery of Tapentadol hydrochloride for a period of 8 hours of iontophoresis
Tapentadol hydrochloride (batch no. A0012) was employed. The components of the phosphate buffered saline (PBS) and the mobile phase used were from Sigma, UK. The pig skin was obtained from a local farm, washed with water, excess hair was carefully trimmed with scissors, and the skin was dermatomed using a Zimmer dermatome set at a nominal thickness of 750 μm. The skin was then stored at −20° C.
The drug was delivered from the anode, using side-bi-side (horizontal) glass diffusion cells (n=6) supplied by Permegear, USA. The porcine skin membrane was excised from the dorsal surface.
Electrodes were prepared in-house and were made of silver/silver chloride. To pass current for 24 hours in this set-up, it was necessary for the donor compartment to contain 76 mM chloride ions.
The anode was placed in the donor chamber; the donor solution was 3 ml of Tapentadol hydrochloride (100 mM, i.e. 25.78 mg/ml of Tapentadol hydrochloride, 22.13 mg/ml of base) in water. The cathode was placed in the receptor chamber, which contained 3 ml of phosphate-buffered saline, pH 7.4. Both chambers were stirred by magnets.
Current was applied for a total of 8 or 24 hours, respectively.
The receptor solution was sampled and assayed at 0.5, 1, 2, 3, 4, 5, 6, 7, 8 (example 1a) and optionally 24 hours (example 1b) post-initiation of the current. During the 8 hour experiment (example 1a), at 0.5, 1, 2, and 3 hours, 1 ml of receptor solution was removed and replaced with fresh PBS. As it was clear that the amount of Tapentadol in the receptor solution was sufficient for quantitation by HPLC, at the subsequent sampling times of 4, 5, 6, 7 and 8 hours, the entire receptor solution (3 ml) was removed and replaced with fresh PBS, to ensure sink conditions in the receptor. During the 24 hour experiment (example 1b), the entire receptor solution (3 ml) was removed and replaced with fresh PBS at every sampling point.
The concentrations of Tapentadol hydrochloride in the receptor chamber samples were determined by HPLC. A mobile phase consisting of 300:700:1 methanol:water:phosphoric acid was pumped (1 ml/min) through a Acclaim RP-18 (4×150 mm) reverse-phase column (Dionex, UK) at 35° C. Tapentadol concentrations were quantified via their UV absorbance at 215 nm using a calibration curve diluted in PBS at pH 7.4. Injection volume was 20 μl and the retention time for Tapentadol hydrochloride was 12 minutes and the total run time was 16 minutes.
A Tapentadol-free “blank” diffusion cell (donor was saline only) was also prepared and the receptor solution was analysed after 8 hours to confirm no peaks from any component of the skin co-eluted with the Tapentadol hydrochloride.
Voltages were as expected for 6 cells in series (range was 6 to 28 volts). The pH of the donor solution was measured after termination of 24 hours of iontophoresis, and ranged from 6.47 to 6.99. The pH of drug in the donor prior to commencing the experiment was 5.07 (5.34 for the 8 hour iontophoresis).

In the case of CC[C@@H](c1cccc(O)c1)[C@@H](C)CN(C)C [Tapentadol hydrochloride], the “drug flux across the skin, Mean ± SD” value (0.5 h, iontophoresis) is reported as 8 ± 8 µg/h, the “drug flux across the skin, as tapentadol base, Mean ± SD” value (0.5 h, iontophoresis) is reported as 7 ± 6 µg/h and the “cumulative, iontophoretic delivery across the skin, Mean ± SD” value (0.5 h) is reported as 4 ± 4 µg. For the same compound, the “cumulative, iontophoretic delivery across the skin, as tapentadol base, Mean ± SD” value (“cumulative … as tapentadol base, Mean ± SD” below) (0.5 h) was 3 ± 3 µg, the “drug flux across the skin, Mean ± SD” value (1 h, iontophoresis) was 56 ± 28 µg/h and the “drug flux across the skin, as tapentadol base, Mean ± SD” value (1 h, iontophoresis) was 48 ± 24 µg/h. For the same compound, the “cumulative, iontophoretic delivery across the skin, Mean ± SD” value (1 h) was 32 ± 18 µg, the “cumulative … as tapentadol base, Mean ± SD” value (1 h) was 28 ± 15 µg and the “drug flux across the skin, Mean ± SD” value (2 h, iontophoresis) was 115 ± 25 µg/h. The “drug flux across the skin, as tapentadol base, Mean ± SD” value (2 h, iontophoresis) was 98 ± 21 µg/h, the “drug flux across the skin” value (2 h, iontophoresis) was 104 µg/h and 162 µg/h and 119 µg/h and 112 µg/h and 90 µg/h and 102 µg/h and the “cumulative, iontophoretic delivery across the skin, Mean ± SD” value (2 h) was 147 ± 40 µg. The “cumulative … as tapentadol base, Mean ± SD” value (2 h) was 126 ± 35 µg, the “cumulative, iontophoretic delivery across the skin” value (2 h) was 216 µg and 173 µg and 128 µg and 127 µg and the “drug flux across the skin, Mean ± SD” value (3 h, iontophoresis) was 193 ± 31 µg/h. The “drug flux across the skin, as tapentadol base, Mean ± SD” value (3 h, iontophoresis) was 166 ± 26 µg/h, the “drug flux across the skin” value (3 h, iontophoresis) was 190 µg/h and 201 µg/h and 222 µg/h and 184 µg/h and 139 µg/h and 220 µg/h and the “cumulative, iontophoretic delivery across the skin, Mean ± SD” value (3 h) was 340 ± 62 µg. For the same compound, the “cumulative … as tapentadol base, Mean ± SD” value (3 h) was 291 ± 54 µg, the “cumulative, iontophoretic delivery across the skin” value (3 h) was 321 µg and 417 µg and 396 µg and 312 µg and 244 µg and 347 µg and the “drug flux across the skin, Mean ± SD” value (4 h, iontophoresis) was 228 ± 23 µg/h. For the same compound, the “drug flux across the skin, as tapentadol base, Mean ± SD” value (4 h, iontophoresis) was 196 ± 20 µg/h, the “drug flux across the skin” value (4 h, iontophoresis) was 229 µg/h and 257 µg/h and 209 µg/h and 250 µg/h and 196 µg/h and the “cumulative, iontophoretic delivery across the skin, Mean ± SD” value (4 h) was 568 ± 68 µg. For the same compound, the “cumulative … as tapentadol base, Mean ± SD” value (4 h) was 487 ± 58 µg, the “cumulative, iontophoretic delivery across the skin” value (4 h) was 550 µg and 674 µg and 624 µg and 522 µg and 494 µg and 543 µg and the “drug flux across the skin, Mean ± SD” value (5 h, iontophoresis) was 246 ± 30 µg/h. The “drug flux across the skin, as tapentadol base, Mean ± SD” value (5 h, iontophoresis) was 211 ± 26 µg/h, the “drug flux across the skin” value (5 h, iontophoresis) was 242 µg/h and 305 µg/h and 234 µg/h and 238 µg/h and 240 µg/h and 217 µg/h and the “cumulative, iontophoretic delivery across the skin, Mean ± SD” value (5 h) was 814 ± 92 µg. The “cumulative … as tapentadol base, Mean ± SD” value (5 h) was 699 ± 79 µg, the “cumulative, iontophoretic delivery across the skin” value (5 h) was 792 µg and 979 µg and 859 µg and 759 µg and 734 µg and 760 µg and the “drug flux across the skin, Mean ± SD” value (6 h, iontophoresis) was 244 ± 18 µg/h. The “drug flux across the skin, as tapentadol base, Mean ± SD” value (6 h, iontophoresis) was 209 ± 15 µg/h, the “drug flux across the skin” value (6 h, iontophoresis) was 247 µg/h and 275 µg/h and 245 µg/h and 225 µg/h and 242 µg/h and 228 µg/h and the “cumulative, iontophoretic delivery across the skin, Mean ± SD” value (6 h) was 1057 ± 107 µg. The “cumulative … as tapentadol base, Mean ± SD” value (6 h) was 908 ± 92 µg, the “cumulative, iontophoretic delivery across the skin” value (6 h) was 1040 µg and 1253 µg and 1104 µg and 984 µg and 976 µg and 988 µg and the “drug flux across the skin, Mean ± SD” value (7 h, iontophoresis) was 261 ± 26 µg/h. For the same compound, the “drug flux across the skin, as tapentadol base, Mean ± SD” value (7 h, iontophoresis) was 224 ± 22 µg/h, the “drug flux across the skin” value (7 h, iontophoresis) was 264 µg/h and 295 µg/h and 271 µg/h and 260 µg/h and 261 µg/h and 215 µg/h and the “cumulative, iontophoretic delivery across the skin, Mean ± SD” value (7 h) was 1319 ± 128 µg. For the same compound, the “cumulative … as tapentadol base, Mean ± SD” value (7 h) was 1132 ± 110 µg, the “cumulative, iontophoretic delivery across the skin” value (7 h) was 1304 µg and 1548 µg and 1375 µg and 1244 µg and 1237 µg and 1203 µg and the “drug flux across the skin, Mean ± SD” value (8 h, iontophoresis) was 260 ± 46 µg/h. For the same compound, the “drug flux across the skin, as tapentadol base, Mean ± SD” value (8 h, iontophoresis) was 224 ± 40 µg/h, the “drug flux across the skin” value (8 h, iontophoresis) was 260 µg/h and 353 µg/h and 241 µg/h and 234 µg/h and 242 µg/h and 232 µg/h and the “cumulative, iontophoretic delivery across the skin, Mean ± SD” value (8 h) was 1579 ± 171 µg. The “cumulative … as tapentadol base, Mean ± SD” value (8 h) was 1356 ± 147 µg, the “cumulative, iontophoretic delivery across the skin” value (8 h) was 1564 µg and 1901 µg and 1616 µg and 1479 µg and 1435 µg and the “time by which steady-state flux appears to have been reached” value (example 1a, iontophoresis) was 5 to 6 h.

From patent US10632195B2, “Pharmaceutical device for electric-field assisted administration of Tapentadol and method of administering Tapentadol with same” (Gruenenthal GmbH, priority 2012, dated 2020)
